Measured values as given in patent US9388163B2, “Multifunctional radical quenchers for the treatment of mitochondrial dysfunction” (Arizona Board of Regents, a Body Corporate of the State of …, priority 2011, dated 2016).

How the values were obtained:
leukemia CEM lymphocytes = test: Suppression of lipid peroxidation (C11-BODIPY 581/591, FACS) in DEM-treated cells; type: cell-based; conditions: CEM cells treated with DEM, untreated control 100, treated control 0
Procedure: (§1) Leukemic CEM cells (ATCC®, catalogue number CRL-2264) were cultured in RPMI (GIBCO, Grand island, NY, USA) with 10% FBS (Fisher Scientific, TX, USA), 2 mM glutamine (HyClone, South Logan, Utah, USA) and 1% penicillin-streptomycin mix antibiotics (Cellgro, Manassas, Va., USA) supplements. Cells were maintained in the log phase at a concentration of between 1×10^5 and 1×10^6 cells/mL.
Measurement of C11-BODIPY^581/591 Oxidation in Cell Culture
Lipid peroxidation in cells was detected by utilizing the oxidant-sensitive lipophilic probe C11 BODIPY^581/591. […] Cells were treated with 500 nM C11 BODIPY^581/591 in phenol red-free RPMI-1640 media and incubated at 37° C. in the dark for 30 minutes. The cells were washed twice with phosphate buffered saline and oxidative stress was induced with 5 mM DEM in phenol red-free RPMI-1640 media for 90 minutes. Treated cells were collected by centrifugation at 300×g for 3 minutes and then washed twice with phosphate buffered saline. Cells were re-suspended in 250 μL of phosphate buffered saline and were analyzed by FACS (FACS Calibur flow cytometer, Becton Dickinson) to monitor the change in intensity of the C11 BODIPY^581/591 green (oxidized) fluorescence signal.

FRDA cell line = test: Trypan blue exclusion cell viability assay, DEM-stressed cells; type: cell-based; conditions: FRDA cells stressed with DEM
Procedure: as §1, with “Friedreich's Ataxia lymphocytes and control” for “Leukemic CEM”, “(Coriell,” for “(ATCC®,”, “[…], respectively)” for “CRL-2264)”, “15%” for “10%”
V. Trypan Blue Cell Viability Assay
Cell viability determined by trypan blue exclusion assay: This technique was used to assess the cytoprotective effects of the invention compounds in cultured cells pharmacologically treated to induce cell death by GSH depletion. DEM was used to deplete cellular GSH and induce oxidative stress. The viability of DEM-treated cells was determined by their ability to exclude the dye trypan blue. Viable cells exclude trypan blue; whereas, non-viable cells take up the dye and stain blue. Briefly, cells were seeded at a density of 1×10^6 cells/mL and treated with different concentrations of the invention compounds. Cells were incubated at 37° C. in a humidified atmosphere of 5% CO2 in air for three hours with 5 mM DEM. Cell viability was determined by staining cells with 0.4% trypan blue using a hemocytometer. At least 500 cells were counted for each experimental group. At the time of assay, >95% of DEM-treated cells were trypan blue positive; whereas, in non-DEM treated control cell cultures >95% cells were viable. Cell viability was expressed as the percentage of control. Data are expressed as means±S.E.M (n=3).

[1] = tested on: bovine heart mitochondrial complex (I, III, IV); test: NADH oxidase inhibition assay (beef heart submitochondrial particles); type: biochemical
Procedure: X. NADH Oxidase Inhibition Assay
Beef heart mitochondria were obtained by a large-scale procedure. Inverted submitochondrial particles (SMP) were prepared by the method of Matsuno-Yagi and Hatefi (J. Biol. Chem. 260 (1985), p. 14424), and stored in a buffer containing 0.25 M sucrose and 10 mM Tris-HCl (pH 7.4) at −80° C. Inhibitory effects of compounds on bovine heart mitochondrial complex (I, III, IV) were evaluated. Maximal dimethyl sulfoxide concentration never exceeded 2% and had no influence on the control enzymatic activity. Beef heart SMP were diluted to 0.5 mg/mL. The enzymatic activities were assayed at 30° C. and monitored spectrophotometrically with a Beckman Coulter DU-530 (340 nm, ε=6.22 mM^−1 cm^−1). NADH oxidase activity was determined in a reaction medium (2.5 mL) containing 50 mM Hepes, pH 7.5, containing 5 mM MgCl2. The final mitochondrial protein concentration was 30 μg/mL. After the pre-equilibration of SMP with inhibitor for 5 min, the initial rates were calculated from the linear portion of the traces.

CEM leukemia cells = test: Suppression of ROS production (DCFH-DA, flow cytometry) in DEM-treated cells; type: cell-based; conditions: CEM cells treated with DEM, untreated control 100, treated control 0
Procedure: as §1
Cellular ROS production can be monitored using 2′,7′-dichlorodihydrofluorescein diacetate (DCFH-DA) (LeBel et al. (1992) Chem. Res. Toxicol. 5, 227-231) (Molecular Probes, Eugene, Oreg., USA), a membrane permeable and oxidant-sensitive fluorescent dye. DCFH-DA is a non-fluorescent derivative of fluorescein that emits fluorescence after being oxidized by hydrogen peroxide and other ROS. The emitted fluorescence is directly proportional to the concentration of hydrogen peroxide. DCFH-DA is nonionic and nonpolar and is easily taken up by cells. Once inside the cell, DCFH-DA is hydrolyzed by cellular esterases to non-fluorescent DCFH which traps the dye in the cell. In the presence of ROS including hydrogen peroxide, DCFH is oxidized to the highly fluorescent compound dichlorofluorescein (DCF). The intracellular DCF fluorescence is used as an index of cellular ROS production.
Cellular oxidative stress was induced by pharmacological depletion of glutathione (GSH) using the chemical diethylmaleate (DEM). […] The compounds tested were prepared by first making stock solutions (1 mM) in dimethylsulfoxide (DMSO). Cells were treated with 5 mM DEM for 30 minutes and collected by centrifugation at 300×g for 3 min and then washed twice with Phosphate Buffer Saline (PBS) (Invitrogen, N.Y., USA). Cells were re-suspended in PBS buffer+10 mM glucose and incubated at 37° C. in the dark for 20 min with 10 μM DCFH-DA. Cells were collected by centrifugation at 300×g for 3 min and then washed twice with PBS buffer. The samples were analyzed immediately by flow cytometry (Becton-Dickinson FACS Caliber), (Cell Quest software, BD Biosciences) using 488 nm excitation laser and FL1-H channel 538 nm emission filter. In each analysis, 10,000 events were recorded after cell debris were electronically gated out. Results obtained were verified by running duplicates and repeating experiments N=3 independent experiments. Authentic hydrogen peroxide was used as a positive control.

| SMILES | Scavenging activity (%) (lipid peroxidation) (leukemia CEM lymphocytes; 1 μM) | Scavenging activity (%) (lipid peroxidation) (leukemia CEM lymphocytes; 5 μM) | viability at 0.1 µM (FRDA cell line) | viability at 0.5 µM (FRDA cell line) | viability at 2.5 µM (FRDA cell line) | Scavenging activity (%) (lipid peroxidation) (leukemia CEM lymphocytes; 2.5 μM) | NADH oxidase (complex I, III, IV) activity (%) ([1]; 5 μM compound) | NADH oxidase (complex I, III, IV) activity (%) ([1]; 10 μM compound) | NADH oxidase (complex I, III, IV) activity (%) ([1]; l μM compound) | % of scavenging activity (ROS) (CEM leukemia cells; 0.25 μM) | % of scavenging activity (ROS) (CEM leukemia cells; 2.5 μM) | % of scavenging activity (ROS) (CEM leukemia cells; 10 μM) |
| --- | --- | --- | --- | --- | --- | --- | --- | --- | --- | --- | --- | --- |
| CCCCCCCc1c(C)n(O)c(C)cc1=O [CPD-6, 3-heptyl-1-hydroxy-2,6-dimethylpyridin-4(1H)-one] | 0% | 0% | 27 ± 7% | 30 ± 13% | 24 ± 6% | – | – | – | – | – | – | – |
| CCCCCCCc1c(C)n(O)c(C)c(Cl)c1=O [CPD-12, 3-chloro-5-heptyl-1-hydroxy-2,6-dimethylpyridin-4(1H)-one] | 0% | 0% | 15 ± 6% | 29 ± 3% | 39 ± 3% | – | – | – | – | – | – | – |
| CCCCCCCc1c(C)n(O)c(C)c(OC)c1=O [CPD-5, 3-heptyl-1-hydroxy-5-methoxy-2,6-dimethylpyridin-4(1H)-one] | 11 ± 1.8% | 2.2 ± 2.3% | 12 ± 6% | 17 ± 7% | 14 ± 3% | 16 ± 1.8% | 44.5 ± 3.6% | 33.5 ± 2.2% | 74.5 ± 6.9% | 21.0 ± 5.5% | 26.4 ± 4.4% | 0 ± 10% |
| CCCCCCCCCCCCCCCCc1c(C)n(O)c(C)cc1=O [CPD-8, 3-hexadecyl-1-hydroxy-2,6-dimethylpyridin-4(1H)-one] | 10 ± 4.3% | 20 ± 3.4% | 19 ± 6% | 15 ± 5% | 18 ± 2% | – | – | – | – | – | – | – |
| CCCCCCCc1c(C)n(O)c(C)c(Br)c1=O [CPD-9, 3-bromo-5-heptyl-1-hydroxy-2,6-dimethylpyridin-4(1H)-one] | 0% | 0% | 31 ± 12% | 28 ± 7% | 32 ± 5% | – | – | – | – | – | – | – |
| CCCCCCCCCCCCCCCCc1c(C)n(O)c(C)c(Br)c1=O [CPD-11, 3-bromo-5-hexadecyl-1-hydroxy-2,6-dimethylpyridin-4(1H)-one] | 7 ± 2.3% | 15 ± 3.3% | 12 ± 5% | 6 ± 3% | 8 ± 3% | – | – | – | – | – | – | – |
| C=Cc1c(C)n(O)c(C)c(CCCCCCCCCCCCCCCC)c1=O [CPD-2, 3-hexadecyl-1-hydroxy-2,6-dimethyl-5-vinylpyridin-4(1H)-one] | 7 ± 2.8% | 0% | 10 ± 3% | 14 ± 5% | 15 ± 4% | 13 ± 4.2% | 12 ± 0.8% | 11.9 ± 1.6% | 20.1 ± 1.4% | 31.1 ± 1.3% | 25.3 ± 5.2% | 35.2 ± 3.9% |
| CCCCCCCc1c(C)n(O)c(C)c(N)c1=O [CPD-3, 3-amino-5-heptyl-1-hydroxy-2,6-dimethylpyridin-4(1H)-one] | 14 ± 4.1% | 9.6 ± 2.8% | 19 ± 6% | 19 ± 3% | 25 ± 5% | 20 ± 5.4% | 76.7 ± 6.9% | 70.4 ± 5.5% | 92.9 ± 10.9% | 4.6 ± 5.4% | 42.2 ± 2.9% | 67.0 ± 5.9% |
| C=Cc1c(C)n(O)c(C)c(CCCCCCC)c1=O [CPD-1, 3-heptyl-1-hydroxy-2,6-dimethyl-5-vinylpyridin-4(1H)-one] | 0% | 0% | 25 ± 6% | 42 ± 3% | 30 ± 6% | 0% | 20.7 ± 2.2% | 13.2 ± 1^ % | 29.7 ± 3.8% | 23.4 ± 1.6% | 22.2 ± 3.5% | 20.0 ± 4.4% |
| CCCCCCCCCCc1c(C)n(O)c(C)c(Cl)c1=O [CPD-13, 3-chloro-5-decyl-1-hydroxy-2,6-dimethylpyridin-4(1H)-one] | 0% | 0% | 17 ± 3% | 14 ± 2% | 19 ± 5% | – | – | – | – | – | – | – |
| CCCCCCCCCCc1c(C)n(O)c(C)c(Br)c1=O [CPD-10, 3-bromo-5-decyl-1-hydroxy-2,6-dimethylpyridin-4(1H)-one] | 0% | 0% | 19 ± 6% | 20 ± 13% | 32 ± 8% | – | – | – | – | – | – | – |
| CCCCCCCCCCc1c(C)n(O)c(C)cc1=O [CPD-7, 3-decyl-1-hydroxy-2,6-dimethylpyridin-4(1H)-one] | 0% | 0% | 36 ± 6% | 14 ± 5% | 20 ± 3% | – | – | – | – | – | – | – |
